Test results published in publication PMC6628379, “Synthesis and Biological Evaluation of Novel Selenyl and Sulfur-L-Dopa Derivatives as Potential Anti-Parkinson’s Disease Agents” (Biomolecules, 2019).
“Also recorded” adds a separate entry of the source. Counter-ions that a name gives are not always drawn. Like-named read-outs stand apart in the source and are kept apart here. Where a SMILES comes first, the peptide text is derived from it. [ ]: non-standard residue; d: D form. dDopa = N[C@H](Cc1ccc(O)c(O)c1)C(=O)O; dSeMet = C[Se]CC[C@@H](N)C(=O)O

What was measured:
[1] = Octanol/water partition coefficient (logP o/w); assay type: physicochemical; conditions: n-octanol / phosphate buffer pH 7.4, HPLC
Protocol: The clogP values were calculated using ACD LogP software package, version 4.55 (Advanced Chemistry Development Inc., Toronto, Canada). Octanol/water partition coefficients (logP o/w) were determined by placing 5 mg of SP into 1 mL of anhydrous n-octanol and an equal volume of phosphate buffer pH 7.4. After vigorously shaking, the resulting mixture was allowed to stand until the complete separation of the two phases. Finally, each phase was filtered and analyzed using HPLC [16].

[2] = tested on: undifferentiated SH-SY5Y human neuroblastoma cells; experiment: MTT cell viability, undifferentiated SH-SY5Y cells; assay type: cell-based
[3] = BBB-PAMPA (parallel artificial membrane permeability); assay type: in vitro ADME, porcine; conditions: for Classification: PAMPA-BBB class by Pe; for Papp at 16 h: pig, PAMPA-BBB, 16 h at room temperature, pH 7.4, read-out: Pe; for capacity to cross the BBB: BBB-PAMPA
Protocol: The blood–brain barrier (BBB)-PAMPA method was used to evaluate the ability of SPs to cross the BBB via passive diffusion. The artificial membrane of each microplate was coated with 5 µL of a porcine polar brain lipid extract mixture (purchased from Avantis Polar Lipids, Alabaster, AL, USA). A total of 150 µL of drug solution was put on the membrane (donor plate) while the bottom plate was filled with 300 µL of buffer solution (acceptor plate). The system was incubated for 16 h at room temperature and then the concentration of the drug in the acceptor plate was evaluated using HPLC. The concentration of the drug at the theoretical equilibrium was determined diluting 500 µM of SP solution with phosphate buffer pH 7.4 and then analyzed using HPLC [18]. Pe (10^−6 cm/s) was calculated as the effective permeability coefficient.

[4] = tested on: differentiated SH-SY5Y neuroblastoma cells; experiment: Nitroblue tetrazolium (NBT) assay; assay type: cell-based, human; conditions: 1 µM, 24 h incubation
Protocol: The differentiated SH-SY5Y cells were treated with SP6 and/or LD compounds at 1 µM for 24 h, and then 10^6 cells were harvested, centrifuged for 5 min at 1200 rpm, and resuspended in 1 mL 0.9% NaCl, in which NBT (nitro blue tetrazolium chloride, 1 mg/mL) was dissolved. The cells were incubated for 3 h at 37 °C, centrifuged (10 min at 1200 rpm), resuspended in 1 mL dimethyl sulfoxide, and left for 20 min at 37 °C. Then, cells were plated in a 96 well plate (2 x 10^5 cell/well) and read at 550 nm using a scanning multi-well spectrophotometer (Cary50MPR, Varian).

[5] = tested on: differentiated SH-SY5Y human neuroblastoma cells; experiment: MTT cell viability, RA/PMA-differentiated SH-SY5Y cells; assay type: cell-based; conditions: dopaminergic differentiated cells, 48 h, 100 µM
[6] = tested on: differentiated SH-SY5Y human neuroblastoma cells; experiment: Intracellular ROS measurement (H2DCFDA assay); assay type: cell-based; conditions: 1 µM for 24 h, then 25 µM H2O2; 2.5 and 5 min; vs CTRL + 25 µM H2O2
Protocol: SHSY-5Y human neuroblastoma cells were plated (2700 cells/well) into special optics 96-well plates (Corning-Costar, New York, USA) and the cells were treated with retinoic acid (RA)/phorbol 12-myristate 13-acetate (PMA) in order to obtain a dopaminergic phenotype. The differentiated cells were treated with SP1-6 at 1 μM for 24 h and then washed with an imaging buffer (125 mM NaCl, 5 mM KCl, 1.2 mM MgSO4, 5 mM glucose, 25 mM HEPES, and 2 mM CaCl2). A concentration of 10 μM of 2',7'-dichlorofluorescin diacetate (H2DCFDA, Molecular probes, Life Technologies REF […]) was added and the plates were incubated at 37 °C for 30 min. After the incubation, cells were washed with an imaging buffer and treated with 25 μM H2O2 for an immediate fluorescence measurement. Plates were read every 50 s from 0 to 5 min for kinetic data analysis using a microplate reader (Synergy H1, BioTek), with excitation and emission wavelengths at 490 nm and 520 nm, respectively, and analyzed by Gen 5 version 2.08 (BioTek).

[7] = tested on: differentiated and H2O2-lesioned SH-SY5Y human neuroblastoma cells; experiment: Neuroprotection against H2O2 (MTT); assay type: cell-based; conditions: 1 µM
Protocol: (§1) In order to obtain a dopaminergic phenotype, the cells were treated with retinoic acid (RA)/phorbol 12-myristate 13-acetate (PMA) in a medium supplemented with RA (10 μM) for three days; then, the medium was removed and replaced with growth medium containing PMA (80 nM) for three days.
(§2) SP1–6 were dissolved in dimethyl sulfoxide (DMSO). SH-SY5Y cells were plated onto 96-well plates (2700 cell/well). The undifferentiated cells (UC) were grown for 24 h in normal medium and then incubated with seven different compounds at different concentrations (1, 10, and 100 µM). […] After 24 h and 48 h of incubation with or without the compounds, the both sets of cells (UC and DC) were assessed for viability by using a colorimetric assay of 3-[4,5-dimethylthiazol-2-yl]-2,5-diphenyltetrazolium bromide (MTT). The differentiated SH-SY5Y cells were treated with SP6 or LD compounds at 1 µM for 1 h and then exposed to 25, 50, 75, and 150 µM 6-OHDA. After a further 24 h of incubation, the cultures were assessed for viability using an MTT assay. For experiments with the neurotoxin H2O2, the differentiated SH-SY5Y cells were pretreated with SP6 or LD compounds at 1 µM for 24 h and then exposed to 25, 150, and 300 µM H2O2 for a further 24 h. Cell viability was detected using the MTT assay.

[8] = tested on: RA/PMA-differentiated and 6-OHDA-lesioned SH-SY5Y human neuroblastoma cells; experiment: Neuroprotection against 6-OHDA (MTT); assay type: cell-based; conditions: 1 µM
Protocol: as §1, §2

[9] = Stability in human plasma; assay type: in vitro ADME; conditions: for half-life at 1 mg/mL: human, 80% human plasma with 20% 0.02 M phosphate buffer
Protocol: Human plasma was purchased from 3H Biomedical (Uppsala, Sweden, Europe). SP stock solution was added to a mixture of 80% plasma and 20% of 0.02 M phosphate buffer (pH 7.4) at 37 °C to obtain a final drug concentration of 1 mg/mL. Samples of 100 μL were taken at various times, and 200 μL of MeOH containing 0.01 M HCl was used to stop the enzymatic activity. The samples were centrifuged for 5 min at 5000× g, and the resultant supernatants were filtered and analyzed using HPLC [17].

[10] = 24 h, all tested concentrations (1, 10, 100 µM)
[11] = 24 h before and during 24 h with 150 µM H2O2
[12] = 24 h before and during 24 h with 300 µM H2O2
[13] = 80% human plasma, 20% 0.02 M phosphate buffer pH 7.4, 37 °C
[14] = pH 7.4, 80% human plasma, 20% 0.02 M phosphate buffer pH 7.4, 37 °C, read-out: t1/2
[15] = pH 7.4, human plasma, read-out: half-life

half-life at 1 mg/mL [9, 14]	SMILES	logP [1]	cytotoxic effect [2, 10]	cytotoxic effect ([2]; 48 h, 100 µM)	Classification [3]	Papp at 16 h [3]	superoxide anion level [4]	cytotoxic effect [5]	antioxidant activity (intracellular ROS) [6]	protection against H2O2 toxicity (cell viability) [7, 11]	protection against H2O2 toxicity (cell viability) [7, 12]	protection against 6-OHDA toxicity (cell viability) ([8]; 1 h before and during 24 h with 150 µM 6-OHDA)	Kobs [9, 13]	capacity to cross the BBB [3]	t1/2 [9, 13]	half-life at 1 mg/mL [9, 15]	protection against 6-OHDA toxicity (cell viability) ([8]; 1 h before and during 24 h with 25, 50, 75, 150 µM 6-OHDA)	stability in plasma ([9]; human plasma)
–	N[C@@H](Cc1ccc(O)c(O)c1)C(=O)O [LD, L-p-3,4-dihydroxyphenylalanine hydrochloride, reference compound]	-2.46	did not show cytotoxic effects	toxic effect	CNS^− (CNS^− (indicative of low BBB permeation): Pe (10^−6 cm/s) < 2)	0.75 ×10⁻⁶ cm/s	seemed to increase it; also recorded: increase in superoxide anion levels	detrimental effect	significant antioxidant activity	ineffective	ineffective	partially counteract the toxic effect	–	–	–	–	–	–
28.8 min	COC(=O)[C@@H](Cc1ccc(OC(C)=O)c(OC(C)=O)c1)NC(=O)CSSCC(=O)N[C@H](Cc1ccc(OC(C)=O)c(OC(C)=O)c1)C(=O)OC [SP1, Methyl (2R)-3-[3,4-bis(acetyloxy)phenyl]-2-{2-[({[(2R)-3-[3,4-bis(acetyloxy)phenyl]-1-methoxy-1-oxopropan-2-yl]carbamoyl}methyl)disulfanyl]acetamido}propanoate]	-0.163	–	–	CNS^− (CNS^− (indicative of low BBB permeation): Pe (10^−6 cm/s) < 2)	1.15 ×10⁻⁶ cm/s	–	–	–	–	–	–	0.024 (±0.001) min^−1	–	–	–	–	–
66.2 min	COC(=O)[C@@H](Cc1ccc(OC(C)=O)c(OC(C)=O)c1)NC(=O)CCSSCCC(=O)N[C@H](Cc1ccc(OC(C)=O)c(OC(C)=O)c1)C(=O)OC [SP2, Methyl (2R)-3-[3,4-bis(acetyloxy)phenyl]-2-{3-[(2-{[(2R)-3-[3,4-bis(acetyloxy)phenyl]-1-methoxy-1-oxopropan-2-yl]carbamoyl}ethyl)disulfanyl]propanamido}propanoate]	0.828	–	–	CNS^− (CNS^− (indicative of low BBB permeation): Pe (10^−6 cm/s) < 2)	1.82 ×10⁻⁶ cm/s	–	–	–	–	–	–	0.010 (±0.001) min^−1	–	–	–	–	–
50.2 min	COC(=O)[C@@H](Cc1ccc(OC(C)=O)c(OC(C)=O)c1)NC(=O)[C@@H](CSSC[C@@H](NC(C)=O)C(=O)N[C@H](Cc1ccc(OC(C)=O)c(OC(C)=O)c1)C(=O)OC)NC(C)=O [SP3, Methyl (2R)-3-[3,4-bis(acetyloxy)phenyl]-2-[(2S)-3-{[(2S)-2-{[(2R)-3-[3,4-bis(acetyloxy)phenyl]-1-methoxy-1-oxopropan-2-yl]carbamoyl}-2-acetamidoethyl]disulfanyl}-2-acetamidopropanamido]propanoate]	1.07	–	–	–	3.1 ×10⁻⁶ cm/s	–	–	–	–	–	–	0.014 (±0.003) min^−1	possess the capacity to cross the BBB	–	–	–	–
–	COC(=O)[C@@H](Cc1ccc(OC(C)=O)c(OC(C)=O)c1)NC(=O)C[Se][Se]CC(=O)N[C@H](Cc1ccc(OC(C)=O)c(OC(C)=O)c1)C(=O)OC [SP4, Methyl (2R)-3-[3,4-bis(acetyloxy)phenyl]-2-{2-[({[(2R)-3-[3,4-bis(acetyloxy)phenyl]-1-methoxy-1-oxopropan-2-yl]carbamoyl}methyl)diselanyl]acetamido}propanoate]	-1.17	–	–	CNS^+ (CNS^+ (indicative of high BBB permeation): Pe (10^−6 cm/s) > 4)	0.94 ×10⁻⁶ cm/s	–	–	–	–	–	–	Immediate hydrolysis	–	Immediate hydrolysis	–	–	–

SMILES	half-life at 1 mg/mL [9, 14]	logP [1]	cytotoxic effect [2, 10]	cytotoxic effect ([2]; 48 h, 100 µM)	Classification [3]	Papp at 16 h [3]	superoxide anion level [4]	cytotoxic effect [5]	antioxidant activity (intracellular ROS) [6]	protection against H2O2 toxicity (cell viability) [7, 11]	protection against H2O2 toxicity (cell viability) [7, 12]	protection against 6-OHDA toxicity (cell viability) ([8]; 1 h before and during 24 h with 150 µM 6-OHDA)	Kobs [9, 13]	capacity to cross the BBB [3]	t1/2 [9, 13]	half-life at 1 mg/mL [9, 15]	protection against 6-OHDA toxicity (cell viability) ([8]; 1 h before and during 24 h with 25, 50, 75, 150 µM 6-OHDA)	stability in plasma ([9]; human plasma)
COC(=O)[C@@H](Cc1ccc(O)c(O)c1)NC(=O)[C@@H](CC[Se]C)NC(C)=O [SP5, Methyl (2R)-3-(3,4-dihydroxyphenyl)-2-[(2R)-2-acetamido-4-(methylselanyl)butanamido]-propanoate] (Ac-[dSeMet]-[dDopa]-OMe)	126 min	0.51	–	–	CNS^− (CNS^− (indicative of low BBB permeation): Pe (10^−6 cm/s) < 2)	2.3 ×10⁻⁶ cm/s	–	–	–	–	–	–	0.005 (±0.0001) min^−1	unable to completely cross the BBB	–	> 120 min	–	–
COC(=O)[C@@H](Cc1ccc(OC(C)=O)c(OC(C)=O)c1)NC(=O)[C@@H](CC[Se]C)NC(C)=O [SP6, Methyl (2R)-3-[3,4-bis(acetyloxy)phenyl]-2-[(2R)-2-acetamido-4-(methylselanyl)butanamido]-propanoate]	173 min	1.44	did not show cytotoxic effects	–	–	4.5 ×10⁻⁶ cm/s	significantly reduced the superoxide anion level	–	significant antioxidant activity; also recorded: able to reduce ROS levels	effective in countering the toxic effect	partially countered	–	0.004 (±0.0001) min^−1	possess the capacity to cross the BBB	–	> 120 min	protective action against the toxin at all tested concentrations	resistant to the enzymatic hydrolyses by plasma esterases
